The results in this text go back to US20260174878A1, “IRAK4 DEGRADATION AGENT AND USE THEREOF” (LEADINGTAC PHARMACEUTICAL (SHAOXING) CO., LTD., priority 2022, published 2026).

SMILES strings stand for the structures.

In general, DC50 refers to the concentration at which degradation of the target reaches its halfway point. In general, Dmax refers to the largest share of the target that was removed. A high value points to deep degradation. Usually IC50 stands for the point on the concentration scale where inhibition reaches its midpoint. High values mean a need for much substance, low ones inhibition by little substance.

Assay [1] addresses T1, IRAK4 protein in normal human PBMCs (Homo sapiens, UniProt Q9NWZ3).
T1 construct: host or cells: normal human PBMCs
T1 sequence (Q9NWZ3 1-460): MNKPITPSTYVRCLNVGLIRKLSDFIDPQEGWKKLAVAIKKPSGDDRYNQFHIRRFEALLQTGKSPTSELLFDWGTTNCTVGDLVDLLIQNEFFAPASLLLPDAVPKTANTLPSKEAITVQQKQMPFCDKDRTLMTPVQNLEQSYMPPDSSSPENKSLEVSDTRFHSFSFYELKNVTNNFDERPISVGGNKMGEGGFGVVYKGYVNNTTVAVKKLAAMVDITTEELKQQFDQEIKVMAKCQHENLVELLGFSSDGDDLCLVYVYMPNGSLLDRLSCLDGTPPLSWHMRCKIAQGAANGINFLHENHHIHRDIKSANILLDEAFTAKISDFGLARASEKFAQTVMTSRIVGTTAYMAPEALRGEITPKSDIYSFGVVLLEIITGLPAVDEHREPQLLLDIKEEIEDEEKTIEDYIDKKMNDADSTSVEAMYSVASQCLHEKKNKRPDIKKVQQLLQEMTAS
Briefly: Degradation of IRAK4 protein in normal human PBMCs (AlphaLISA). The class given is cell-based. As to conditions: 24 h incubation. In outline:
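Cryopreserved normal human PBMCs treated with compound at 0.01-3000 nM (0.25% DMSO) for 24 h at 37 °C. IRAK4 in lysates quantified by AlphaLISA against a standard curve and normalized to BCA total protein. Degradation versus control fitted to give DC50 and Dmax.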

The next assay deals with T2, IRAK4 kinase (Homo sapiens, UniProt Q9NWZ3).
T2 construct: purchased Carna
T2 sequence (Q9NWZ3 1-460): T1 sequence (Q9NWZ3 1-460)
Description: IRAK4 kinase activity test (KinEASE-STK S1 HTRF kit). The class given is biochemical. As to conditions: IRAK4 kinase 2.5 nM, 7 μM adenosine triphosphate, 37° C. 120 min. The procedure: Then 2.5 nM IRAK4 kinase (Carna), 1 μM biotinylated polypeptide substrate (Cisbio), and 7 μM adenosine triphosphate (Sigma-Aldrich) were sequentially added, and the mixtures were incubated at 37° C. for 120 min. Subsequently, an anti-phosphoserine/threonine antibody (Cisbio) conjugated with a europium element compound and streptavidin conjugated with a modified XL665 (Cisbio) were added to the reaction system to stop the reaction. After 1 h of incubation at room temperature, the fluorescence intensity of each well was measured at the excitation wavelength of 337 nm and the emission wavelengths of 620 nm and 665 nm with a microplate reader EnVision (PerkinElmer) in the HTRF mode, and Ratio values were calculated using the formula: Ratio=(665 nm/620 nm)×10^4. The inhibition rates of the compounds at each concentration were calculated by comparison with the fluorescence intensity ratio of the control group. Then non-linear curve fittings for logarithmic concentration-inhibition rate were performed using GraphPad Prism 7, and the IC50 values of the compounds were obtained.

The subject of assay [2] is imiquimod-induced mouse psoriasis model. Briefly: Imiquimod-induced C57 mouse psoriasis model. The class given is in vivo, C57BL/6 mice. As to conditions: p<0.0001. The procedure:
Then 10% of the total volume of Solutol was added, and the mixture was subjected to vortex ultrasonic treatment until clear. […] The compound was formulated fresh for each use.
B. Imiquimod sensitization and drug intervention on C57BL/6J mice were conducted, with specific administration times shown in Table 6. • i. On Day 1, the backs of the mice were shaved, ensuring consistent area using a mold, approximately 2 cm×3 cm, and 60 mice were selected; • ii. the mice were randomly divided into 6 groups based on body weight and right ear thickness, with 10 mice per group; • iii. 6 to induce psoriasis symptoms in the model mice, imiquimod was applied on the back skin and right ear of the mice in groups G2-G6 for sensitization at noon on Day 0, and this continued for 7 days. • iv. […] Endpoint sampling of the mice was performed on Day 5 or Day 7.
• Clinical score and right ear thickness.

As for `CN(CCC1CCN(C(=O)c2ccc(Cl)c(N3CCC(=O)NC3=O)c2)CC1)C[C@H]1CC[C@H](n2cc(NC(=O)c3cnn4ccc(N5CCC[C@H](N)C5)nc34)c(C(F)F)n2)CC1` [Example 18, 5-((S)-3-aminopiperidin-1-yl)-N-(1-((1R,4S)-4-(((2-(1-(4-chloro-3-(2,4-dioxotetrahydropyrimidin-1(2H)-yl)benzoyl)piperidin-4-yl)ethyl)(methyl)amino)methyl)cyclohexyl)-3-(difluoromethyl)-1H-pyrazol-4-yl)pyrazolo[1,5-a]pyrimidine-3-carboxamide], in assay [1], the DC50 is 0.77 nM and the Dmax is 99.5%. The same compound came in with an IC50 against IRAK4 kinase of 7.86 nM.

As for `O=C1CCN(c2cc(C(=O)N3CCC4(CCN(C[C@H]5CC[C@H](n6cc(NC(=O)c7cnn8ccc(N9CC%10(COC%10)C9)nc78)c(C(F)F)n6)CC5)CC4)CC3)ccc2Cl)C(=O)N1` [Example 19, N-(1-((1R,4R)-4-((9-(4-chloro-3-(2,4-dioxotetrahydropyrimidin-1(2H)-yl)benzoyl)-3,9-diazaspiro[5.5]undecan-3-yl)methyl)cyclohexyl)-3-(difluoromethyl)-1H-pyrazol-4-yl)-5-(2-oxa-6-azaspiro[3.3]heptan-6-yl)pyrazolo[1,5-a]pyrimidine-3-carboxamide], in assay [1], the DC50 turned out to be 0.47 nM and the Dmax turned out to be 98%. The compound also returned an IC50 on IRAK4 kinase of 36.1 nM.

Take `Cc1ccc(C(=O)N2CCC3(CCN(C[C@H]4CC[C@H](n5cc(NC(=O)c6cnn7ccc(N8CCC[C@H](O)C8)nc67)c(C(F)F)n5)CC4)CC3)CC2)cc1N1CCC(=O)NC1=O` [Example 27, N-(3-(difluoromethyl)-1-((1R,4S)-4-((9-(3-(2,4-dioxotetrahydropyrimidin-1(2H)-yl)-4-methylbenzoyl)-3,9-diazaspiro[5.5]undecan-3-yl)methyl)cyclohexyl)-1H-pyrazol-4-yl)-5-((S)-3-hydroxypiperidin-1-yl)pyrazolo[1,5-a]pyrimidine-3-carboxamide]: in assay [1], half-maximal degradation (DC50) was put at 0.28 nM and the Dmax turned out to be 97.8%. On IRAK4 kinase, this compound returned an IC50 of 2.98 nM.

For the compound `COc1ccc(C(=O)N2CCC(CCN(C)C[C@H]3CC[C@H](n4cc(NC(=O)c5cnn6ccc(N7CC8(COC8)C7)nc56)c(C(F)F)n4)CC3)CC2)cc1N1CCC(=O)NC1=O` [Example 32, N-(3-(difluoromethyl)-1-((1R,4R)-4-(((2-(1-(3-(2,4-dioxotetrahydropyrimidin-1(2H)-yl)-4-methoxybenzoyl)piperidin-4-yl)ethyl)(methyl)amino)methyl)cyclohexyl)-1H-pyrazol-4-yl)-5-(2-oxa-6-azaspiro[3.3]heptan-6-yl)pyrazolo[1,5-a]pyrimidine-3-carboxamide], in assay [1], the DC50 was 1.11 nM and the maximal degradation (Dmax) is 98.1%. For the same compound, on IRAK4 kinase, the IC50 amounted to 17 nM.

As to `COc1cc2nn([C@H]3CC[C@](O)(COCC4CCN(C(=O)c5ccc(Cl)c(N6CCC(=O)NC6=O)c5)CC4)CC3)cc2cc1NC(=O)c1cccc(C(F)(F)F)n1` [Example 33, N-(2-((1S,4S)-4-(((1-(4-chloro-3-(2,4-dioxotetrahydropyrimidin-1(2H)-yl)benzoyl)piperidin-4-yl)methoxy)methyl)-4-hydroxycyclohexyl)-6-methoxy-2H-indol-5-yl)-6-(trifluoromethyl)pyridinecarboxamide], in assay [1], it took 1.58 nM to reach half-maximal degradation (DC50) and the Dmax was determined as 98.6%. In addition, the midpoint of inhibition against IRAK4 kinase, the IC50, lay at 10.6 nM.

In assay [1], `COc1cc2nn([C@H]3CC[C@](O)(COCCC4CCN(C(=O)c5ccc(Cl)c(N6CCC(=O)NC6=O)c5)CC4)CC3)cc2cc1NC(=O)c1cccc(C(F)(F)F)n1` [Example 34] returned a 50% degradation concentration (DC50) of 1.32 nM and a Dmax of 99.1%. The compound further had an IC50 on IRAK4 kinase of 12.9 nM.

In assay [1], `COc1cc2nn([C@H]3CC[C@](O)(CN(C)CC4CCC5(CC4)CCN(C(=O)c4ccc(Cl)c(N6CCC(=O)NC6=O)c4)CC5)CC3)cc2cc1NC(=O)c1cccc(C(F)(F)F)n1` [Example 35] yielded a DC50 of 0.65 nM and a Dmax of 99.7%. The compound also had an IC50 at IRAK4 kinase of 15.1 nM.

Turning to `COc1cc2nn([C@H]3CC[C@@](COCCC4CCN(C(=O)c5ccc(Cl)c(N6CCC(=O)NC6=O)c5)CC4)(OC)CC3)cc2cc1NC(=O)c1cccc(C(F)(F)F)n1` [Example 36], in assay [1], half-maximal degradation (DC50) was put at 2.03 nM and the Dmax was determined as 98.6%. The compound also showed an IC50 against IRAK4 kinase of 9.29 nM.

On to `C=C1/C(=C\C=C2/CCC[C@]3(C)[C@@H]([C@H](C)CCCC(C)(C)O)CC[C@@H]23)C[C@@H](O)C[C@@H]1O` [calcitriol], for which the “inhibition rate relative to vehicle control (AUC of clinical score)” value in assay [2] (ointment 75 mg back + 24 mg right ear/mouse topical QD) is 44.5%.

Regarding `CC(=O)OCC(=O)[C@@]1(O)[C@H](C)C[C@H]2[C@@H]3CCC4=CC(=O)C=C[C@]4(C)[C@@]3(F)[C@@H](O)C[C@@]21C` [dexamethasone, Dexamethasone acetate], the “inhibition rate relative to vehicle control (AUC of clinical score)” value in assay [2] (5 mpk p.o. QD) was determined as 20.7%.
